According to US12649733B2, “3,6-diamino-pyridazin-3-yl derivatives, pharmaceutical compositions containing them and their uses as pro-apoptotic agents” (LES LABORATOIRES SERVIER, priority 2019, dated 2026):

Legend:
BCLXL [1] = target: T1, BCLXL (Homo sapiens, UniProt Q07817, V10N/V9A); assay: Fluorescence polarisation assay (PUMA-based probe displacement); format: binding; note: 20 nM protein, 10 nM fluorescent probe
Bcl-xL protein = target: T2, Bcl-xL protein (Homo sapiens, UniProt Q07817, N197C); assay: Fluorescence quenching assay (PUMA peptide displacement); format: binding; details: 1 nM protein, 400 nM peptide, 2 hours at 23° C.; KI determined from IC50
T2 construct: (2-197)[N197C]; His-His (two His8 stretches joined by a Gly/Ala/Ser/Thr linker)
Summary of the method: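 Compounds were tested as an 11-point series in pH 7.4 HEPES/NaCl/Tween buffer with 5% DMSO, 2 h at 23 °C. Cy5-tagged Bcl-xL(2-197, N197C) at 1 nM and quencher-tagged PUMA peptide at 400 nM were used. Competitive binders restore fluorescence (620/680 nm), and IC50 values were converted to KI.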

BCLXL [2] = target: T1, BCLXL; assay: AlphaLISA assay (BIM peptide displacement); format: binding; details: 20 pM protein, 1 nM peptide
Summary of the method: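 Competitive displacement of fluorescein-labelled BIM peptide (1 nM) from biotinylated GST-BCL-XL(2-209) (20 pM) in 10 mM HEPES, 150 mM NaCl, 0.05% Tween 20, pH 7.4, 4% DMSO; 11-point dilutions. Overnight at 23° C with acceptor beads, then donor beads 2 h; Alpha signal at 615 nm.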

MOLT-4 cells = assay: MOLT-4 cell viability, MTT assay; format: cell-based; details: Homo sapiens, MOLT-4, 48 h, 48 h exposure
Summary of the method: (§1)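 Viability read by MTT reduction (OD 540 nm after overnight SDS/HCl lysis) after 48 h compound treatment of cells in RPMI 1640/10% FBS. Triplicates at nine concentrations, 3.16-fold apart; four-parameter curve fitting yields IC50.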

H146 cells = assay: H146 cell viability, MTT assay; format: cell-based; details: Homo sapiens, NCI-H146, 48 h, 48 h exposure
Summary of the method: as §1

[3] = system: MOLT-4 T-cell Acute Lymphoblastic Leukemia (T-ALL) model; assay: MOLT-4 xenograft efficacy study (tumor growth inhibition); format: in vivo, female NOD SCID mice; details: for activity in vivo after intravenous administration: MOLT-4 xenograft
Method: The in vivo therapeutic and pharmacodynamic effects of Bcl-xL-targeting small molecules were determined in MOLT-4 T-cell Acute Lymphoblastic Leukemia (T-ALL) model upon intravenous (IV) administration. The tested compounds were formulated in Hydroxypropyl-β-Cyclodextrin 20%/Hydrogen Chloride 25 mM (HPBCD/HCl). MOLT-4 cells (ATCC No. CRL-1582) were cultured in RPMI supplemented with 10% FBS. Cells were re-suspended in 50% matrigel (BD Biosciences) and 0.1 mL containing 5×10^6 cells was subcutaneously inoculated into the right flank of female NOD SCID mice (Charles River). For efficacy studies, when tumors reached the appropriate volume, mice were randomized (8 animals per group) using Easy stat software. Control vehicle (HPBCD/HCl), Example 73 (3.75 or 7.5 mg/kg) or Example 100 (3.75 mg/kg) were injected IV ([…]-[…]). Mice body weight was monitored three times a week and tumor size was measured using electronic calipers. Tumor volume was estimated by measuring the minimum and maximum tumor diameters using the formula: (minimum diameter)^2 (maximum diameter)/2. At the end of the treatment cycle (day 17), tumor growth inhibition was calculated using the formula: [formula] Response was evaluated as follows: CR (Complete Response) if tumor size was ≤25 mm^3 for at least three consecutive measurements, PR (Partial Response) if tumor size was comprised between 25 mm^3 and half of the starting size for at least three consecutive measurements. Mice were sacrificed at the first measurement for which tumor volume exceeded 2000 mm^3 or at the first signs of animal health deterioration. Efficacy of Example 73 and Example 100 on MOLT-4 xenografts is illustrated in Table 5. Treatment was started 12 days post tumor cells inoculation (average size: 214 mm^3). Vehicle (HPBCD/HCl), Example 73 (3.75 and 7.5 mg/kg) or Example 100 (3.75 mg/kg) were dosed IV each 3 days for a total of 6 administrations.

T2 sequence (Q07817 2-197 N197C): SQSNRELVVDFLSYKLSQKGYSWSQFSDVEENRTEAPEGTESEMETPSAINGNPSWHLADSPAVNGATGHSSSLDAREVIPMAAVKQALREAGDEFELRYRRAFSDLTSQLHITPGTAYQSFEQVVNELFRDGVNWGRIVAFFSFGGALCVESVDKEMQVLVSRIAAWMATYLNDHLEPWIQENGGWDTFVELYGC
T1 sequence (Q07817 with tags, fused parts or gaps V9A/V10N): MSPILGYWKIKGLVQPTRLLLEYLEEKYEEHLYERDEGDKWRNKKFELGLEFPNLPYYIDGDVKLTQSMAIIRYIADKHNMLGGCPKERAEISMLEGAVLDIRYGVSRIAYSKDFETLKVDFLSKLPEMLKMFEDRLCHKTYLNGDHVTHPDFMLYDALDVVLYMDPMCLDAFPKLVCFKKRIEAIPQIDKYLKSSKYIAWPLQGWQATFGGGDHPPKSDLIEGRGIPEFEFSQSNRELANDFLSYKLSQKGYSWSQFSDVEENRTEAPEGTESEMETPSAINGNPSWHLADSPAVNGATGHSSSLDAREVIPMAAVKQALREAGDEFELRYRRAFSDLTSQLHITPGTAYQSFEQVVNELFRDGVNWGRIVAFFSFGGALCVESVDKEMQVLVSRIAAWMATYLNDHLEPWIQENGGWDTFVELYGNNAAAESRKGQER

Ki (BCLXL [1])	Ki (Bcl-xL protein)	IC50 (BCLXL [2])	IC50 (MOLT-4 cells)	IC50 (H146 cells)	Structure (SMILES)	activity in vivo after intravenous administration [3]	% TGI (day 17) ([3]; 3.75 mg/kg, IV, Q3D6)
< 1 nM	20 pM	0.18 nM	96.2 nM	1040 nM	C/C(=C\c1sc(N(C)c2cc(C)c(Nc3nc4ccccc4s3)nn2)nc1C(=O)O)COc1ccc(C#CCN(C)C)cc1F [Example 163, 2-({6-[(1,3-Benzothiazol-2-yl)amino]-5-methylpyridazin-3-yl}(methyl)amino)-5-[(1E)-3-{4-[3-(dimethylamino)prop-1-yn-1-yl]-2-fluorophenoxy}-2-methylprop-1-en-1-yl]-1,3-thiazole-4-carboxylic acid]		
< 1 nM	1.9 pM	0.0071 nM	12.9 nM	34.6 nM	Cc1cc(N(C)c2nc(C(=O)O)c(CC(O)COc3ccc(C#CCN(C)C)cc3F)s2)nnc1Nc1nc2ccccc2s1 (stereo not drawn) [Example 164, 2-({6-[(1,3-benzothiazol-2-yl)amino]-5-methylpyridazin-3-yl}(methyl)amino)-5-(3-{4-[3-(dimethylamino)prop-1-yn-1-yl]-2-fluorophenoxy}-2-hydroxypropyl)-1,3-thiazole-4-carboxylic acid]		
< 1 nM	6 pM	0.11 nM	0.444 nM	4.66 nM	CN(C)CC#Cc1ccc(OCCCc2sc(N(C)c3cc(C4CC4)c(Nc4nc5ccccc5s4)nn3)nc2C(=O)O)c(F)c1 [Example 62, 2-({6-[(1,3-Benzothiazol-2-yl)amino]-5-cyclopropylpyridazin-3-yl}(methyl)amino)-5-(3-{4-[3-(dimethylamino)prop-1-yn-1-yl]-2-fluorophenoxy}propyl)-1,3-thiazole-4-carboxylic acid]		
< 1 nM	1.2 pM	0.022 nM	668 nM	971 nM	CNCC#Cc1ccc(OCCCc2sc(N(CCCC(O)C[N+](C)(C)CCCS(=O)(=O)[O-])c3cc(C)c(Nc4nc5ccccc5s4)nn3)nc2C(=O)O)c(F)c1 (stereo not drawn) [Example 146, 3-[[5-[[6-(1,3-Benzothiazol-2-ylamino)-5-methyl-pyridazin-3-yl]-[4-carboxy-5-[3-[2-fluoro-4-[3-(methylamino)prop-1-ynyl]phenoxy]propyl]thiazol-2-yl]amino]-2-hydroxy-pentyl]-dimethyl-ammonio]propane-1-sulfonate]		
< 1 nM	1 pM	0.0053 nM	0.783 nM	1.91 nM	Cc1cc(N(CCCCO)c2nc(C(=O)O)c(CCCOc3ccc(C#CCN(C)C)cc3F)s2)nnc1Nc1nc2ccccc2s1 [Example 134, 2-[[6-(1,3-Benzothiazol-2-ylamino)-5-methyl-pyridazin-3-yl]-(4-hydroxybutyl)amino]-5-[3-[4-[3-(dimethylamino)prop-1-ynyl]-2-fluoro-phenoxy]propyl]thiazole-4-carboxylic acid]		
< 1 nM		0.077 nM	2.37 nM	11.3 nM	Cc1cc(N(C)c2nc(C(=O)O)c(CCCOc3ccc(C#CCN(C)CCO)cc3F)s2)nnc1Nc1nc2ccccc2s1 [Example 76, 2-({6-[(1,3-Benzothiazol-2-yl)amino]-5-methylpyridazin-3-yl}(methyl)amino)-5-[3-(2-fluoro-4-{3-[(2-hydroxyethyl)(methyl)amino]prop-1-yn-1-yl}phenoxy)propyl]-1,3-thiazole-4-carboxylic acid]	active in vivo	
< 1 nM	5.9 pM	0.019 nM	430 nM	211 nM	Cc1cc(N(CCCCCN(C)C2CCNCC2)c2nc(C(=O)O)c(CCCOc3ccc(C#CCN(C)C)cc3F)s2)nnc1Nc1nc2ccccc2s1 [Example 165, 2-[[6-(1,3-Benzothiazol-2-ylamino)-5-methyl-pyridazin-3-yl]-[5-[methyl(4-piperidyl)amino]pentyl]amino]-5-[3-[4-[3-(dimethylamino)prop-1-ynyl]-2-fluoro-phenoxy]propyl]thiazole-4-carboxylic acid]		
< 1 nM	3.9 pM	0.014 nM	430 nM	14500 nM	CNCC#Cc1ccc(OCCCc2sc(N(CCCC(O)C[N+](C)(C)C)c3cc(C)c(Nc4nc5ccccc5s4)nn3)nc2C(=O)[O-])c(F)c1 (stereo not drawn) [Example 144, 2-[[6-(1,3-Benzothiazol-2-ylamino)-5-methyl-pyridazin-3-yl]-[4-hydroxy-5-(trimethylammonio)pentyl]amino]-5-[3-[2-fluoro-4-[3-(methylamino)prop-1-ynyl]phenoxy]propyl]thiazole-4-carboxylate]		
< 1 nM	2.9 pM	0.013 nM	400 nM	432 nM	Cc1cc(N(CCCCCNCCN2CCN(C)CC2)c2nc(C(=O)O)c(CCCOc3ccc(C#CCN(C)C)cc3F)s2)nnc1Nc1nc2ccccc2s1 [Example 167, 2-[[6-(1,3-Benzothiazol-2-ylamino)-5-methyl-pyridazin-3-yl]-[5-[2-(4-methylpiperazin-1-yl)ethylamino]pentyl]amino]-5-[3-[4-[3-(dimethylamino)prop-1-ynyl]-2-fluoro-phenoxy]propyl]thiazole-4-carboxylic acid]		
1.6 nM		0.032 nM	12.6 nM	38.6 nM	Cc1cc(N(C)c2nc(C(=O)O)c(CCCOc3ccc(C#CCO)cc3F)s2)nnc1Nc1nc2ccccc2s1 [Example 100, 2-({6-[(1,3-Benzothiazol-2-yl)amino]-5-methylpyridazin-3-yl}(methyl)amino)-5-{3-[2-fluoro-4-(3-hydroxyprop-1-yn-1-yl)phenoxy]propyl}-1,3-thiazole-4-carboxylic acid]	active in vivo	64.6%
< 1 nM	2.6 pM	0.0078 nM	160 nM	40.2 nM	Cc1cc(N(CCCC(O)CN2CCNCC2)c2nc(C(=O)O)c(CCCOc3ccc(C#CCN(C)C)cc3F)s2)nnc1Nc1nc2ccccc2s1 (stereo not drawn) [Example 172, 2-[[6-(1,3-Benzothiazol-2-ylamino)-5-methyl-pyridazin-3-yl]-(4-hydroxy-5-piperazin-1-yl-pentyl)amino]-5-[3-[4-[3-(dimethylamino)prop-1-ynyl]-2-fluoro-phenoxy]propyl]thiazole-4-carboxylic acid]		
< 1 nM	5 pM	0.014 nM	154 nM	156 nM	CCN(CC)CCNCC(O)CCCN(c1cc(C)c(Nc2nc3ccccc3s2)nn1)c1nc(C(=O)O)c(CCCOc2ccc(C#CCN(C)C)cc2F)s1 (stereo not drawn) [Example 170, 2-[[6-(1,3-Benzothiazol-2-ylamino)-5-methyl-pyridazin-3-yl]-[5-[2-(diethylamino)ethylamino]-4-hydroxy-pentyl]amino]-5-[3-[4-[3-(dimethylamino)prop-1-ynyl]-2-fluoro-phenoxy]propyl]thiazole-4-carboxylic acid]		
< 1 nM	2.6 pM	0.0092 nM	172 nM	142 nM	Cc1cc(N(CCCCCNCCN2CCOCC2)c2nc(C(=O)O)c(CCCOc3ccc(C#CCN(C)C)cc3F)s2)nnc1Nc1nc2ccccc2s1 [Example 166, 2-[[6-(1,3-Benzothiazol-2-ylamino)-5-methyl-pyridazin-3-yl]-[5-(2-morpholinoethylamino)pentyl]amino]-5-[3-[4-[3-(dimethylamino)prop-1-ynyl]-2-fluoro-phenoxy]propyl]thiazole-4-carboxylic acid]		
